Measurements taken from PubChem BioAssay (NCI).
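The concentration for 50% growth inhibition is given as GI50. At the TGI there is no net growth.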

Assays:
Assay in all cases: NCI tumour cell line growth inhibition, 384-well format
SNB-75 CNS = test system: SNB-75 CNS
MDA-MB-231 breast = test system: MDA-MB-231 breast
UO-31 renal = test system: UO-31 renal
NCI-H322M lung = test system: NCI-H322M lung
SF-268 CNS = test system: SF-268 CNS
MOLT-4 leukemia = test system: MOLT-4 leukemia
RXF 393 renal = test system: RXF 393 renal
EKVX NSCLC = test system: EKVX NSCLC
HCC-2998 colon = test system: HCC-2998 colon
NCI-H460 NSCLC = test system: NCI-H460 NSCLC
BT-549 breast = test system: BT-549 breast
PC-3 prostate = test system: PC-3 prostate
MCF7 breast = test system: MCF7 breast
K-562 leukemia = test system: K-562 leukemia
SF-539 CNS = test system: SF-539 CNS
ACHN renal = test system: ACHN renal
LOX IMVI melanoma = test system: LOX IMVI melanoma
SF-295 CNS = test system: SF-295 CNS
T-47D breast = test system: T-47D breast
KM12 colon = test system: KM12 colon
A498 renal = test system: A498 renal
DU-145 prostate = test system: DU-145 prostate
UACC-62 melanoma = test system: UACC-62 melanoma
HOP-62 NSCLC = test system: HOP-62 NSCLC
HOP-92 NSCLC = test system: HOP-92 NSCLC
SK-MEL-5 melanoma = test system: SK-MEL-5 melanoma
UACC-257 melanoma = test system: UACC-257 melanoma
CAKI-1 renal = test system: CAKI-1 renal
OVCAR-4 ovarian = test system: OVCAR-4 ovarian
SK-OV-3 ovarian = test system: SK-OV-3 ovarian
RPMI-8226 leukemia = test system: RPMI-8226 leukemia
786-0 renal = test system: 786-0 renal
M14 melanoma = test system: M14 melanoma
COLO 205 colon = test system: COLO 205 colon
HCT-15 colon = test system: HCT-15 colon
OVCAR-8 ovarian = test system: OVCAR-8 ovarian
TK-10 renal = test system: TK-10 renal
SNB-19 CNS = test system: SNB-19 CNS
MALME-3M melanoma = test system: MALME-3M melanoma
NCI-H226 lung = test system: NCI-H226 lung
NCI-H23 lung = test system: NCI-H23 lung
MDA-MB-435 melanoma = test system: MDA-MB-435 melanoma
SN12C renal = test system: SN12C renal
A549 NSCLC = test system: A549 NSCLC
SK-MEL-28 melanoma = test system: SK-MEL-28 melanoma
NCI/ADR-RES ovarian = test system: NCI/ADR-RES ovarian
HT29 colon = test system: HT29 colon
U251 glioblastoma = test system: U251 glioblastoma
CCRF-CEM leukemia = test system: CCRF-CEM leukemia
HCT-116 colon = test system: HCT-116 colon
SW-620 colon = test system: SW-620 colon
HL-60(TB) leukemia = test system: HL-60(TB) leukemia
MDA-MB-468 breast = test system: MDA-MB-468 breast
SR leukemia = test system: SR leukemia
HS 578T breast = test system: HS 578T breast
IGROV1 ovarian = test system: IGROV1 ovarian
OVCAR-3 ovarian = test system: OVCAR-3 ovarian
NCI-H522 lung = test system: NCI-H522 lung

In the case of `CC/C(=C(/c1ccc(/C=C/C(=O)O)cc1)c1ccc2[nH]ncc2c1)c1ccc(F)cc1Cl`, the GI50 (SNB-75 CNS) is reported as 13.7 µM, the TGI (SNB-75 CNS) is reported as 26.6 µM and the GI50 (MDA-MB-231 breast) is reported as 15.1 µM. For the same compound, the TGI (MDA-MB-231 breast) was 28.4 µM, the GI50 (UO-31 renal) was 10.1 µM and the TGI (UO-31 renal) was 21.8 µM. The GI50 (NCI-H322M lung) was 14.2 µM, the TGI (NCI-H322M lung) was 27.4 µM and the GI50 (SF-268 CNS) was 15.6 µM. It also gave a TGI (SF-268 CNS) of 29 µM, a GI50 (MOLT-4 leukemia) of 12.9 µM and a TGI (MOLT-4 leukemia) of 25.9 µM. For the same compound, the GI50 (RXF 393 renal) was 8.35 µM, the TGI (RXF 393 renal) was 21 µM and the GI50 (EKVX NSCLC) was 14.7 µM. It also gave a TGI (EKVX NSCLC) of 28.2 µM, a GI50 (HCC-2998 colon) of 18.3 µM and a TGI (HCC-2998 colon) of 32.3 µM. The GI50 (NCI-H460 NSCLC) was 16.6 µM, the TGI (NCI-H460 NSCLC) was 30.5 µM and the GI50 (BT-549 breast) was 14.7 µM. It also gave a TGI (BT-549 breast) of 27.9 µM, a GI50 (PC-3 prostate) of 13.7 µM and a TGI (PC-3 prostate) of 26.7 µM. It also gave a TGI (MCF7 breast) of 15.1 µM, a GI50 (K-562 leukemia) of 14.5 µM and a TGI (K-562 leukemia) of 29.5 µM. The GI50 (SF-539 CNS) was 14.3 µM, the TGI (SF-539 CNS) was 27.4 µM and the GI50 (ACHN renal) was 13.7 µM. For the same compound, the TGI (ACHN renal) was 26.6 µM, the GI50 (LOX IMVI melanoma) was 10.5 µM and the TGI (LOX IMVI melanoma) was 22.4 µM. For the same compound, the GI50 (SF-295 CNS) was 4.65 µM, the TGI (SF-295 CNS) was 17 µM and the GI50 (T-47D breast) was 11.9 µM. The TGI (T-47D breast) was 25.2 µM, the GI50 (KM12 colon) was 14.4 µM and the TGI (KM12 colon) was 27.5 µM. It also gave a GI50 (A498 renal) of 10.9 µM, a TGI (A498 renal) of 22.9 µM and a GI50 (DU-145 prostate) of 15.9 µM. The TGI (DU-145 prostate) was 29.4 µM, the GI50 (UACC-62 melanoma) was 13 µM and the TGI (UACC-62 melanoma) was 25.8 µM. For the same compound, the GI50 (HOP-62 NSCLC) was 9.36 µM, the TGI (HOP-62 NSCLC) was 21.4 µM and the GI50 (HOP-92 NSCLC) was 14.2 µM. It also gave a TGI (HOP-92 NSCLC) of 27.6 µM, a GI50 (SK-MEL-5 melanoma) of 12.6 µM and a TGI (SK-MEL-5 melanoma) of 25.2 µM. For the same compound, the GI50 (UACC-257 melanoma) was 15.1 µM, the TGI (UACC-257 melanoma) was 29 µM and the GI50 (CAKI-1 renal) was 16.6 µM. The TGI (CAKI-1 renal) was 30.4 µM, the GI50 (OVCAR-4 ovarian) was 14.2 µM and the TGI (OVCAR-4 ovarian) was 28 µM. For the same compound, the GI50 (SK-OV-3 ovarian) was 18 µM, the TGI (SK-OV-3 ovarian) was 32.5 µM and the GI50 (RPMI-8226 leukemia) was 5.4 µM. It also gave a TGI (RPMI-8226 leukemia) of 16.9 µM, a GI50 ([…]-0 renal) of 12.7 µM and a TGI (786-0 renal) of 25.9 µM. The GI50 (M14 melanoma) was 7.57 µM, the TGI (M14 melanoma) was 20.5 µM and the GI50 (COLO 205 colon) was 15.1 µM. It also gave a TGI (COLO 205 colon) of 28.7 µM, a GI50 (HCT-15 colon) of 12.4 µM and a TGI (HCT-15 colon) of 25.2 µM. The GI50 (OVCAR-8 ovarian) was 15.3 µM, the TGI (OVCAR-8 ovarian) was 28.7 µM and the GI50 (TK-10 renal) was 16.3 µM. The TGI (TK-10 renal) was 31.2 µM, the GI50 (SNB-19 CNS) was 14.4 µM and the TGI (SNB-19 CNS) was 27.5 µM. It also gave a GI50 (MALME-3M melanoma) of 14.8 µM, a TGI (MALME-3M melanoma) of 28 µM and a GI50 (NCI-H226 lung) of 18.1 µM. The TGI (NCI-H226 lung) was 32.1 µM, the GI50 (NCI-H23 lung) was 14.7 µM and the TGI (NCI-H23 lung) was 27.9 µM. For the same compound, the GI50 (MDA-MB-435 melanoma) was 2.71 µM, the TGI (MDA-MB-435 melanoma) was 7.22 µM and the GI50 (SN12C renal) was 17.1 µM. For the same compound, the TGI (SN12C renal) was 31.6 µM, the GI50 (A549 NSCLC) was 10.4 µM and the TGI (A549 NSCLC) was 22.3 µM. For the same compound, the GI50 (SK-MEL-28 melanoma) was 12.5 µM, the TGI (SK-MEL-28 melanoma) was 26.1 µM and the GI50 (NCI/ADR-RES ovarian) was 14.1 µM. The TGI (NCI/ADR-RES ovarian) was 27.7 µM, the GI50 (HT29 colon) was 16.7 µM and the TGI (HT29 colon) was 30.5 µM. It also gave a GI50 (U251 glioblastoma) of 11.8 µM, a TGI (U251 glioblastoma) of 24.2 µM and a GI50 (CCRF-CEM leukemia) of 10.5 µM. It also gave a TGI (CCRF-CEM leukemia) of 22.3 µM, a GI50 (HCT-116 colon) of 15.3 µM and a TGI (HCT-116 colon) of 29.4 µM. The GI50 (SW-620 colon) was 18.1 µM, the TGI (SW-620 colon) was 32.2 µM and the GI50 (HL-60(TB) leukemia) was 6.03 µM. The TGI (HL-60(TB) leukemia) was 18.5 µM, the GI50 (MDA-MB-468 breast) was 11.5 µM and the TGI (MDA-MB-468 breast) was 23.8 µM. It also gave a GI50 (SR leukemia) of 3 µM, a TGI (SR leukemia) of 6.35 µM and a GI50 (HS 578T breast) of 15.6 µM. The TGI (HS 578T breast) was 29 µM, the GI50 (IGROV1 ovarian) was 15.2 µM and the TGI (IGROV1 ovarian) was 29 µM. It also gave a GI50 (OVCAR-3 ovarian) of 14.3 µM, a TGI (OVCAR-3 ovarian) of 27.6 µM and a GI50 (NCI-H522 lung) of 14.6 µM. The TGI (NCI-H522 lung) was 27.8 µM.
